Measurements published in US10080789B2, “Programming of cells for tolerogenic therapies” (President and Fellows of Harvard College, priority 2009, dated 2018).
Where no end group is shown, it is not given here.

Legend:
[1] = biological target: T1, T cell-specific potassium channel Kv1.3 (Rattus norvegicus, UniProt P15384); settings: cited from earlier work
T1 construct: endogenous in cells

[2] = test system: mononuclear cells isolated from the bone marrow (BM) of C57BL/6 mice; assay: In vitro induction of DC from bone marrow mononuclear cells, phenotype and cytokine production; assay type: cell-based; settings: for expression of the proinflammatory cytokines IL-6 and IL-12 by induced DC: GM-CSF in presence of named factor, bacterial stimulation, vs DC induced by GM-CSF alone; for CD11c+/CD86+ in total BM cells: 7 day incubation of BM cells with GM-CSF with or without the named factor
Excerpt: FIGS. 5F (Table 1) and 5A-E reflect the potency of a material system that delivers TSLP and GM-CSF to PD lesion in induction of tolerogenic DC. […] The surface phenotypes of CD11c+DC in the BM culture were monitored by flow cytometry and the proportionality of each phenotype is expressed as a percent (%) of the total mononuclear cells (MNC) (FIG. 5F, Table 1).
The present invention provides for a material-based local application of GM-CSF with appropriate DC influencing factors that leads to tolerogenic DCs (tDCs), and subsequent enrichment of iTreg cells. Candidate biofactors include thymic stromal lymphopoietin (TSLP), vasoactive intestinal peptide (VIP), and transforming growth factor-beta (TGF-β). Screening is based on the induced DC's anti-inflammatory properties. […] Overall, these observations that the combination of GM-CSF with TSLP efficiently induces DC with an anti-inflammatory phenotype.

[3] = test system: JAWSII DCs; assay: JAWSII DC recruitment, proliferation, emigration and activation in vitro (transwell); assay type: cell-based
Procedure: FIGS. 3A-D show data related to the concentration dependent effects of GM-CSF on DC proliferation, recruitment, activation and emigration in vitro. […] Migration counts measured at 12 hours. FIG. 3B is the effects of GM-CSF concentration on the proliferation of JAWSII DCs. 0 (white bar), 50 (grey bar), and 500 ng/ml (black bar) of GM-CSF. […] Migration counts taken at 6 hours. FIG. 3D are representative photomicrographs of TNF-α and LPS stimulated JAWSII DCs cultured in 5-50 or 500 ng/ml GM-CSF and stained for the activation markers MHCII and CCR7. Scale bar in FIG. 3D—20 μm. Values in FIGS. 3A-C represent mean and standard deviation (n=4); *P<0.05; **P<0.01
Migration assays are performed with 6.5 mm transwell dishes (Costar, Cambridge, Mass.) with a pore size of 5 μm. The effects of GM-CSF and TSLP, (Invivogen, San Diego, Calif.) on the migration of DCs are assessed by placing recombinant murine GM-CSF and TSLP in the bottom wells and 5×10^5 DCs in the top wells. To assess the effects of GM-CSF and TSLP on DC activation, cells are cultured with bacterial stimulation (fixed Aa, fixed P. gingivalis, Aa-LPS or Pg-LPS along) with various concentrations of TSLP and GM-CSF for 24 hours and then the cells are washed and fixed in 10% formalin. The cells are prepared for fluorescence immunohistochemistry as per below, and examined using fluorescent microscopy (Olympus, Center Valley, Pa.). Cells are also analyzed by FACS, and gated according to positive stains using isotype controls, and the percentage of cells staining positive for each surface antigen will be recorded.

[4] = Release profile of GM-CSF from polymer delivery vehicle; assay type: physicochemical; settings: within the first 5 days; then slow sustained release over next 10 days
Excerpt: (§1) Numbers in FACS plots indicate the percentage of the cell population positive for both markers. FIG. 4D is the percentage of total cells that were positive for the DC markers CD11c and CD86, in blank (-∘-) and GM-CSF (-●-) loaded polymers as a function of time post implantation. […] Scale bar—500 μm. Values in FIGS. 4A, 4D, 4E, and 4F represent mean and standard deviation (n=4 or 5); *P<0.05; **P<0.01.
(§2) The polymer delivery vehicle presents GM-CSF in a defined spatiotemporal manner in vivo, following introduction into the tissue of interest. […]
To determine the efficiency of GM-CSF, TSLP, and pDNA incorporation and the kinetics of release, ^125I-labeled factors (Perkin Elmer) are utilized as a tracer, and gels and placed in Phosphate Buffer Solution (PBS) (37° C.). At various time points, the PBS release media is collected and amount of ^125I-factor released from the scaffolds is determined at each time point using a gamma counter and normalizing to the total ^125I-factor incorporated into the gels. To asses the retention of GM-CSF bioactivity, loaded gels are placed in the top wells of 6.5 mm transwell dishes (Costar, Cambridge, Mass.) with a pore size of 3 μm and the proliferation of JAWS II cells (DC cell line) cultured in the bottom wells is evaluated at various time points using cell counts from a hemacytometer. […]

[5] = test system: CD11c(+)CD86(+) DCs; assay: In vivo DC recruitment to subcutaneously implanted GM-CSF loaded polymers; parameters: species or system C57BL/6J mice; settings: polymers loaded with 3 μg GM-CSF
Excerpt: as §1, §2
Gels with various combinations of factors are injected into gingival of mice. […] To analyze DC recruitment, gels and surrounding tissue are excised at various time-points and the tissue digested into single cell suspensions using a collagenase solution (Worthingtion, 250 U/ml) that was agitated at 37° C. for 45 min The cell suspensions are then poured through a […] cell strainer to isolate cells from gel particles and the cells are pelleted and washed with cold PBS and counted using a Z2 coulter counter (Beckman Coulter). […] Cells are gated according to positive labels using isotype controls, and the percentage of cells staining positive for each surface antigen is recorded.

T1 sequence (P15384 whole entry): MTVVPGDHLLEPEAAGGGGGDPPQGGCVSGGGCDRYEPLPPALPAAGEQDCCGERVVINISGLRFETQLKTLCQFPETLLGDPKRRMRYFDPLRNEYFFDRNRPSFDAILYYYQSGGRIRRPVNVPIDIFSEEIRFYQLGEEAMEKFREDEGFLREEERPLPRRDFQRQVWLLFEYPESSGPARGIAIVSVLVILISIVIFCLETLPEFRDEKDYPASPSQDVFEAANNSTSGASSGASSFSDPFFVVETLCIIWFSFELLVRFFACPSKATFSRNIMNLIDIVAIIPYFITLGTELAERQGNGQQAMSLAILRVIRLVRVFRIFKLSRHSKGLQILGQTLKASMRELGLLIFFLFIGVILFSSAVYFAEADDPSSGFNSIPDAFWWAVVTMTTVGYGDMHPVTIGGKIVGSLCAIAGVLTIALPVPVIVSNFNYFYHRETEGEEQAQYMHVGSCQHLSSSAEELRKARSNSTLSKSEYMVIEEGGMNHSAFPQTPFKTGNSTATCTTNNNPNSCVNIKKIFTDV

Substance: Kaliotoxin
- RANKL production by activated rat T cells [1]: inhibits

Substance: vasoactive intestinal peptide (HSDAVFTDNYTRLRKQMAVKKYLNSILN; ends and bridges not checked; UniProt P01282 125-152, looked up) [VIP, candidate biofactor tested with GM-CSF]
- IL-10 production by induced DC ([2]; BM cells with GM-CSF and named factor (100 ng/ml), 7 days, bacterial challenge): did not up-regulate
- expression of the proinflammatory cytokines IL-6 and IL-12 by induced DC [2]: diminished expression

Substance: granulocyte-macrophage colony stimulating factor [GM-CSF]
- DC recruitment and proliferation ([3]; JAWSII DCs in vitro): enhanced DC recruitment and proliferation in a dose-dependent manner
- DC activation via TNF-α and LPS stimulation (MHCII and CCR7 expression) ([3]; high concentrations of GM-CSF): suppressed DC activation
- GM-CSF concentrations that inhibited DC migration toward the LN-derived chemokine CCL19 ([3]; transwell, 300 ng/ml CCL19, counts at 6 hours): > 100 ng/mL
- bioactive GM-CSF load released [4]: approximately 60%
- total cellular infiltration at the site ([5]; dorsal subcutaneous, day-14, vs control): significantly enhanced
- total cell number and percentage of infiltrating cells that were CD11c(+)CD86(+) DCs ([5]; subcutaneous): increased
- CD11c+/CD86+ in total BM cells [2]: 14.7%

Substance: transforming growth factor-beta [TGF-b]
- CD11c+/CD86+ in total BM cells [2]: 10.5%
- expression of the proinflammatory cytokines IL-6 and IL-12 by induced DC [2]: diminished expression

Substance: thymic stromal lymphopoietin [TSLP]
- expression of the proinflammatory cytokines IL-6 and IL-12 by induced DC [2]: diminished expression
